Results from patent publication US9226891B2, “Anti-flush compositions” (Vitalis LLC, priority 2011, dated 2016).

Legend:
[1] = system: flushing side effect of niacin; test: Example 1: flush rating on the Global Flush Severity Scale (GFSS) after niacin, with or without aspirin; format: in vivo, human; conditions: for reduction of flush severity (GFSS) from Period I: vs niacin alone
Procedure: Healthy human patients were recruited for this study. […] Each patient was asked to rate his or her flush on the Global Flush Severity Scale (GFSS) (see FIG. 1 and Paolini et al. Int. J. Clin. Pract. 62(6):896-904 (2008)), when the flush completely resolved. The Global Flushing Severity Score measures, overall, in the previous 24 hours, how each patient rates the flushing symptoms, including redness, warmth, tingling, and itchiness of the skin. […] After the flush completely resolved, then each patient recorded his or her GFSS flush rating. Not until at least two days later did Period III start. At Period III, each patient was asked to not swallow the orally administered aspirin (81 mg) but to allow the aspirin to be absorbed through the oral mucosa. The aspirin was in powdered form and the remaining aspirin in the mouth was washed out with water. […] Still, the flush was rated (GFSS) after it was resolved. […] The flush was then rated (GFSS) after it completely resolved.

[2] = GI-absorbed aspirin; cited from earlier work

## CC(=O)Oc1ccccc1C(=O)O [aspirin]
[1]; Period II: 81 mg aspirin swallowed + 500 mg niacin
  reduction of flush severity (GFSS) from Period I: 18%
[1]; Period II: 81 mg aspirin swallowed, followed by 500 mg niacin
  Global Flush Severity Scale (GFSS) average score: 6.88
[1]; Period III: 81 mg aspirin mucosally absorbed (not swallowed), then 500 mg niacin
  Global Flush Severity Scale (GFSS) average score: 5.06
[1]; Period III: 81 mg aspirin mucosally absorbed + 500 mg niacin
  reduction of flush severity (GFSS) from Period I: 40%
[1]; Period IV: 81 mg aspirin half mucosally absorbed and half swallowed, then 500 mg niacin
  Global Flush Severity Scale (GFSS) average score: 3.94
[1]; Period IV: 81 mg aspirin half mucosally absorbed, half swallowed + 500 mg niacin
  reduction of flush severity (GFSS) from Period I: 53%
[2]
  time to peak aspirin serum level following administration: 15 to 20 min
